Reference: ChEMBL document CHEMBL3259635, “Recent developments of metal N-heterocyclic carbenes as anticancer agents” (Eur J Med Chem, 2014)

Columns and labels:
Assay type in all cases: functional, cell-based
[1] = Cytotoxicity against breast cancer cells (unknown origin); conditions: Cancer cell lines
[2] = Cytotoxicity against gastric cancer cells (unknown origin); conditions: Cancer cell lines, Stomach
[3] = Cytotoxicity against epithelial cancer cells (unknown origin); conditions: Cancer cell lines
[4] = Cytotoxicity against CCO cells; conditions: Ictalurus punctatus
[5] = Cytotoxicity against rat PC12 cells; conditions: PC-12
[6] = Cytotoxicity against rat PC12 cells after 24 hrs; conditions: PC-12, 24 h

**Q.** For `CC(=O)Oc1ccc(Cn2cc[n+](-c3c(C)cc(C)cc3C)c2)cc1`, which IC50 [1] is on record?
**A.** 20 µM

**Q.** And the IC50 [2]?
**A.** 10 µM

**Q.** For `c1c[n+](C23CC4CC(CC(C4)C2)C3)cn1C12CC3CC(CC(C3)C1)C2`, which IC50 [3] is on record?
**A.** 1 µM

**Q.** For `CCCCCCCn1cc[n+](C)c1.O=S(=O)([N-]S(=O)(=O)C(F)(F)F)C(F)(F)F`, which EC50 [4] is on record?
**A.** < 0.1 µM

**Q.** With `c1ccc(CCn2cc[n+](CCc3ccccc3)c2)cc1` as the compound, how does the IC50 [3] read?
**A.** 20 µM

**Q.** For `CCCn1cc[n+](C)c1`, which EC50 [4] is on record?
**A.** > 10 µM

**Q.** For `Cc1n(Cc2ccccc2)cc[n+]1Cc1ccccc1C(F)(F)F`, which IC50 [3] is on record?
**A.** 35 µM

**Q.** Which EC50 [5] does the source give for `CCCCn1cc[n+](C)c1` here?
**A.** > 9120 µM

**Q.** With `Cc1ccc(C[n+]2ccn(Cc3ccccc3)c2)cc1` as the compound, how does the IC50 [3] read?
**A.** 30 µM

**Q.** With `CCCCCCCCCCCCn1cc[n+](C)c1` as the compound, how does the EC50 [5] read?
**A.** 24 µM

**Q.** Which EC50 [6] does the source give for `CCCCCCCC[n+]1ccn(C)c1` here?
**A.** 560 µM

**Q.** For `CC(=O)Oc1ccc(Cn2cc[n+](Cc3ccccc3)c2C)cc1`, which IC50 [3] is on record?
**A.** 28 µM

**Q.** With `CCCCCCCCn1cc[n+](C)c1.O=S(=O)([N-]S(=O)(=O)C(F)(F)F)C(F)(F)F` as the compound, how does the EC50 [4] read?
**A.** < 0.1 µM

**Q.** What does the source list for `Cc1n(Cc2ccccc2)cc[n+]1Cc1ccccc1`?
**A.** IC50 [1]: 35 µM; IC50 [2]: 35 µM

**Q.** For `c1ccc(Cc2cn(Cc3ccccc3)c[n+]2Cc2ccccc2)cc1`, which IC50 [3] is on record?
**A.** 20 µM
